Assays:
[1] = system: Crabgrass; test: Test F over-the-top soil/foliage treatment; type: in vivo, Digitaria spp.; set-up: scale not given here; conditions: soil/foliage spray, ~14 days
Description: (§1) The test chemicals, dissolved in a non-phytotoxic solvent, were applied in an overall spray to the foliage and surrounding […] of selected plant species. […] Approximately fourteen days after treatment, all species were visually compared to untreated controls and rated for response to treatment.
(§2) All plant species were seeded in Woodstown sandy loam soil and grown in a greenhouse. The following species were grown in soil contained in plastic pots (25 cm diameter by 13 cm deep): soybeans, cotton, alfalfa, corn, rice, wheet, sorghum, velvetleaf (Abutilon theophrasti), sesbania (Sesbania exaltata), Cassia (Cassia tora), morningglory (Ipomoea hederacea), jimsonweed (Datura stramonium), cocklebur (Xanthium pensylvanicum), crabgrass (Digitaria spp.), nutsedge (Cyperus rotundus), barnyardgrass (Echinochloa crusgalli), giant foxtail (Setaria faberii) and wild oats (Avena fatua). The following species were grown in soil in a paper cup (12 cm diameter by 13 cm deep): sunflower, sugarbeets, and mustard. All plants were sprayed approximately 14 days after planting.

[2] = system: Cheatgrass; test: Test B pre-emergence on Fallsington silt loam; type: in vivo, Bromus secalinus; conditions: 28 days
Excerpt: (§3) Two plastic bulb pans were filled with fertilized and limed Fallsington silt loam soil. One pan was planted with corn, sorghum, Kentucky bluegrass and several grassy weeds. The other pan was planted with cotton, soybeans, purple nutsedge (Cyperus rotundus), and several broadleaf weeds. The following grassy and broadleaf weeds were planted: crabgrass (Digitaria sanguinalis), barnyardgrass (Echinochloa crusgalli), wild oats (Avena fatua), johnsongrass (Sorghum halepense), dallisgrass (Paspalum dilatatum), giant foxtail (Setaria faberii), cheatgrass (Bromus secalinus), mustard (Brassica arvensis), cocklebur (Xanthium pensylvanicum), pigweed (Amaranthus retroflexus), morningglory (Ipomoea hederacea), cassia (Cassia tora), teaweed (Sida spinosa), velvetleaf (Abutilon theophrasti), and jimsonweed (Datura stramonium). A 12.5 cm diameter plastic pot was also filed with prepared soil and planted with rice and wheat. Another 12.5 cm pot was planted with sugarbeets. The above four containers were treated pre- emergence with several test compounds within the scope of the invention.
(§4) Twenty-eight days after treatment, the plants were evaluated and visually rated for response to the chemical treatments utilizing the rating system described previously for Test A. The data are summarized in Table B.

[3] = system: Soybean; test: Test B pre-emergence on Fallsington silt loam; type: in vivo, soybeans; conditions: 28 days
Excerpt: as §3, §4

[4] = system: Alfalfa; test: Test F over-the-top soil/foliage treatment; type: in vivo; set-up: scale not given here; conditions: soil/foliage spray; 0.06 kg/ha; ~14 days
Description: as §1, §2

[5] = system: Sorghum; test: Test F over-the-top soil/foliage treatment; type: in vivo; set-up: scale not given here; conditions: soil/foliage spray, ~14 days
Description: as §1, §2

[6] = system: Nutsedge; test: Test F over-the-top soil/foliage treatment; type: in vivo, Cyperus rotundus; set-up: scale not given here; conditions: soil/foliage spray, ~14 days
Description: as §1, §2

[7] = system: Pigweed; test: Test B pre-emergence on Fallsington silt loam; type: in vivo, Amaranthus retroflexus; conditions: 0.06 kg/ha, 28 days
Excerpt: as §3, §4

[8] = system: Ky. bluegrass; test: Test B pre-emergence on Fallsington silt loam; type: in vivo, Kentucky bluegrass; set-up: scale not given here; conditions: 28 days
Excerpt: as §3, §4

[9] = system: Corn; test: Test B pre-emergence on Fallsington silt loam; type: in vivo; set-up: scale not given here; conditions: 28 days
Excerpt: as §3, §4

[10] = system: Wheat; test: Test B pre-emergence on Fallsington silt loam; type: in vivo; set-up: scale not given here; conditions: 28 days
Excerpt: as §3, §4

[11] = system: Sugarbeets; test: Test B pre-emergence on Fallsington silt loam; type: in vivo; set-up: scale not given here; conditions: 0.25 kg/ha, 28 days
Excerpt: as §3, §4

[12] = system: Cocklebur; test: Test B pre-emergence on Fallsington silt loam; type: in vivo, Xanthium pensylvanicum; conditions: 0.25 kg/ha, 28 days
Excerpt: as §3, §4

[13] = system: Jimsonweed; test: Test F over-the-top soil/foliage treatment; type: in vivo, Datura stramonium; conditions: soil/foliage spray; 0.12 kg/ha; ~14 days
Description: as §1, §2

[14] = system: Barnyardgrass; test: Test B pre-emergence on Fallsington silt loam; type: in vivo, Echinochloa crusgalli; conditions: 28 days
Excerpt: as §3, §4

[15] = system: Giant Foxtail; test: Test F over-the-top soil/foliage treatment; type: in vivo, Setaria faberii; set-up: scale not given here; conditions: soil/foliage spray, ~14 days
Description: as §1, §2

[16] = system: Sesbania; test: Test F over-the-top soil/foliage treatment; type: in vivo, Sesbania exaltata; set-up: scale not given here; conditions: soil/foliage spray; 0.12 kg/ha; ~14 days
Description: as §1, §2

[17] = system: Wild Oats; test: Test B pre-emergence on Fallsington silt loam; type: in vivo, Avena fatua; set-up: scale not given here; conditions: 28 days
Excerpt: as §3, §4

[18] = system: Wheat; test: Test F over-the-top soil/foliage treatment; type: in vivo, wheet; set-up: scale not given here; conditions: soil/foliage spray, ~14 days
Description: as §1, §2

[19] = system: Giant Foxtail; test: Test B pre-emergence on Fallsington silt loam; type: in vivo, Setaria faberii; conditions: 28 days
Excerpt: as §3, §4

[20] = system: Sunflower; test: Test F over-the-top soil/foliage treatment; type: in vivo; conditions: soil/foliage spray, ~14 days
Description: as §1, §2

[21] = system: Corn; test: Test F over-the-top soil/foliage treatment; type: in vivo; conditions: soil/foliage spray, ~14 days
Description: as §1, §2

[22] = system: Mustard; test: Test F over-the-top soil/foliage treatment; type: in vivo; conditions: soil/foliage spray, ~14 days
Description: as §1, §2

[23] = system: Sugarbeets; test: Test F over-the-top soil/foliage treatment; type: in vivo; conditions: soil/foliage spray; 0.06 kg/ha; ~14 days
Description: as §1, §2

[24] = system: Johnsongrass; test: Test B pre-emergence on Fallsington silt loam; type: in vivo, Sorghum halepense; set-up: scale not given here; conditions: 28 days
Excerpt: as §3, §4

[25] = system: Dallisgrass; test: Test B pre-emergence on Fallsington silt loam; type: in vivo, Paspalum dilatatum; set-up: scale not given here; conditions: 28 days
Excerpt: as §3, §4

[26] = system: Wild Oats; test: Test F over-the-top soil/foliage treatment; type: in vivo, Avena fatua; set-up: scale not given here; conditions: soil/foliage spray, ~14 days
Description: as §1, §2

[27] = system: Morningglory; test: Test B pre-emergence on Fallsington silt loam; type: in vivo, Ipomoea hederacea; conditions: 0.06 kg/ha, 28 days
Excerpt: as §3, §4

[28] = system: Crabgrass; test: Test B pre-emergence on Fallsington silt loam; type: in vivo, Digitaria sanguinalis; set-up: scale not given here; conditions: 28 days
Excerpt: as §3, §4

[29] = system: Cassia; test: Test B pre-emergence on Fallsington silt loam; type: in vivo, Cassia tora; conditions: 0.06 kg/ha, 28 days
Excerpt: as §3, §4

Compound CCCS(=O)(=O)Oc1ccccc1S(=O)(=O)NC(=O)Nc1nc(C)nc(OC)n1 [Compound 39, 2-hydroxy-N-[(4-methoxy-6-methyl-1,3,5-triazin-2-yl)aminocarbonyl]benzenesulfonamide, 1-propanesulfonate] has a Crabgrass response rating ([1]; 0.007 kg/ha) of 0, a Crabgrass response rating ([1]; 0.015 kg/ha) of 0 and a Crabgrass response rating ([1]; 0.03 kg/ha) of 0. The Crabgrass response rating ([1]; 0.06 kg/ha) was 0, the Crabgrass response rating ([1]; 0.12 kg/ha) was 0 and the Cheatgrass response rating ([2]; 0.06 kg/ha) was 0. It also gave a Cheatgrass response rating ([2]; 0.25 kg/ha) of 3G, a Soybean response rating ([3]; 0.06 kg/ha) of 3G and a Soybean response rating ([3]; 0.25 kg/ha) of 4G. It also gave an Alfalfa response rating [4] of 10C, a Sorghum response rating ([5]; 0.007 kg/ha) of 3G and a Sorghum response rating ([5]; 0.03 kg/ha) of 5G. The Sorghum response rating ([5]; 0.06 kg/ha) was 0, the Sorghum response rating ([5]; 0.12 kg/ha) was 0 and the Nutsedge response rating ([6]; 0.007 kg/ha) was 5G. For the same compound, the Nutsedge response rating ([6]; 0.015 kg/ha) was 0, the Nutsedge response rating ([6]; 0.03 kg/ha) was 3G and the Nutsedge response rating ([6]; 0.06 kg/ha) was 0. The Nutsedge response rating ([6]; 0.12 kg/ha) was 1G, the Pigweed response rating [7] was 4G and the “Ky. bluegrass response rating” value ([8]; 0.06 kg/ha) was 2G. The “Ky. bluegrass response rating” value ([8]; 0.25 kg/ha) was 4G, the Corn response rating ([9]; 0.06 kg/ha) was 2G and the Corn response rating ([9]; 0.25 kg/ha) was 4G. For the same compound, the Wheat response rating ([10]; 0.06 kg/ha) was 0, the Wheat response rating ([10]; 0.25 kg/ha) was 0 and the Sugarbeets response rating [11] was 10C. It also gave a Cocklebur response rating [12] of 10C, a Jimsonweed response rating [13] of 0 and a Barnyardgrass response rating ([14]; 0.06 kg/ha) of 4G. For the same compound, the Barnyardgrass response rating ([14]; 0.25 kg/ha) was 5G, the “Giant Foxtail response rating” value ([15]; 0.007 kg/ha) was 1G and the “Giant Foxtail response rating” value ([15]; 0.03 kg/ha) was 2G. For the same compound, the “Giant Foxtail response rating” value ([15]; 0.06 kg/ha) was 0, the “Giant Foxtail response rating” value ([15]; 0.12 kg/ha) was 0 and the Sesbania response rating [16] was 10C. For the same compound, the “Wild Oats response rating” value ([17]; 0.06 kg/ha) was 3G, the “Wild Oats response rating” value ([17]; 0.25 kg/ha) was 3G and the Wheat response rating ([18]; 0.007 kg/ha) was 0. For the same compound, the Wheat response rating ([18]; 0.015 kg/ha) was 0, the Wheat response rating ([18]; 0.03 kg/ha) was 0 and the Wheat response rating ([18]; 0.06 kg/ha) was 0. For the same compound, the Wheat response rating ([18]; 0.12 kg/ha) was 0, the “Giant Foxtail response rating” value ([19]; 0.06 kg/ha) was 0 and the “Giant Foxtail response rating” value ([19]; 0.25 kg/ha) was 2G. It also gave a Sunflower response rating ([20]; 0.015 kg/ha) of 10C, a Sunflower response rating ([20]; 0.06 kg/ha) of 10C and a Sunflower response rating ([20]; 0.12 kg/ha) of 10C. The Corn response rating ([21]; 0.007 kg/ha) was 2G, the Corn response rating ([21]; 0.06 kg/ha) was 0 and the Corn response rating ([21]; 0.12 kg/ha) was 0. The Mustard response rating ([22]; 0.06 kg/ha) was 10C, the Mustard response rating ([22]; 0.12 kg/ha) was 10C and the Sugarbeets response rating [23] was 10C. For the same compound, the Johnsongrass response rating ([24]; 0.06 kg/ha) was 4G, the Johnsongrass response rating ([24]; 0.25 kg/ha) was 3G and the Dallisgrass response rating ([25]; 0.06 kg/ha) was 3G. The Dallisgrass response rating ([25]; 0.25 kg/ha) was 0, the “Wild Oats response rating” value ([26]; 0.007 kg/ha) was 0 and the “Wild Oats response rating” value ([26]; 0.03 kg/ha) was 2G. For the same compound, the “Wild Oats response rating” value ([26]; 0.06 kg/ha) was 0, the “Wild Oats response rating” value ([26]; 0.12 kg/ha) was 0 and the Morningglory response rating [27] was 9G. For the same compound, the Crabgrass response rating ([28]; 0.06 kg/ha) was 2G and the Crabgrass response rating ([28]; 0.25 kg/ha) was 2G.

Compound CCCS(=O)(=O)Oc1ccccc1S(=O)(=O)NC(=O)Nc1nc(OC)cc(OC)n1 [Compound 36, N-[(4,6-dimethoxypropimidin-2-yl)aminocarbonyl]-2-hydroxybenzenesulfonamide, 1-propanesulfonate] has a Cheatgrass response rating ([2]; 0.06 kg/ha) of 6G, a Cheatgrass response rating ([2]; 0.25 kg/ha) of 7G and a Soybean response rating ([3]; 0.06 kg/ha) of 2G. For the same compound, the “Ky. bluegrass response rating” value ([8]; 0.06 kg/ha) was 6G, the “Ky. bluegrass response rating” value ([8]; 0.25 kg/ha) was 7G and the Corn response rating ([9]; 0.06 kg/ha) was 3G. The Corn response rating ([9]; 0.25 kg/ha) was 4G, the Wheat response rating ([10]; 0.06 kg/ha) was 0 and the Wheat response rating ([10]; 0.25 kg/ha) was 0. For the same compound, the Barnyardgrass response rating ([14]; 0.06 kg/ha) was 4G, the “Wild Oats response rating” value ([17]; 0.06 kg/ha) was 4G and the “Wild Oats response rating” value ([17]; 0.25 kg/ha) was 4G. The “Giant Foxtail response rating” value ([19]; 0.06 kg/ha) was 4G, the Dallisgrass response rating ([25]; 0.06 kg/ha) was 4G and the Dallisgrass response rating ([25]; 0.25 kg/ha) was 5G. For the same compound, the Cassia response rating [29] was 6G, the Morningglory response rating [27] was 4G and the Crabgrass response rating ([28]; 0.06 kg/ha) was 2G. For the same compound, the Crabgrass response rating ([28]; 0.25 kg/ha) was 4G.

Source: EP0044212B1, “Herbicidal o-alkylsulfonyloxy- and o-alkylsulfonylamino-benzenesulfonamides” (E.I. DU PONT DE NEMOURS AND COMPANY, priority 1980, dated 1982)
